In patent US20210395313A1, “PEPTIDE PAC1 ANTAGONISTS” (AMGEN INC., priority 2017, published 2021):
Where a SMILES comes first, the peptide text is derived from it. Bridges are numbered along the chain shown (N, C = ends).

Legend:
human PAC1 receptor = target: T1, human PAC1 receptor (Homo sapiens, UniProt P41586); assay: LANCE Ultra cAMP accumulation antagonist assay in SHSY-5Y cells; assay type: cell-based;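 also: inhibition of cAMP accumulation evoked by PAC1 agonist at its EC80 in SHSY-5Y cells endogenously expressing receptor, 30 min preincubation then 15 min agonist, TR-FRET readout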
T1 construct: SHSY-5Y (human neuroblastoma cell line) and RG-2 (rat glioma cell line) cells endogenously express human and rat PAC1 receptors, respectively; endogenous in cells; host or cells: SHSY-5Y human neuroblastoma cells
T1 sequence (P41586 21-468): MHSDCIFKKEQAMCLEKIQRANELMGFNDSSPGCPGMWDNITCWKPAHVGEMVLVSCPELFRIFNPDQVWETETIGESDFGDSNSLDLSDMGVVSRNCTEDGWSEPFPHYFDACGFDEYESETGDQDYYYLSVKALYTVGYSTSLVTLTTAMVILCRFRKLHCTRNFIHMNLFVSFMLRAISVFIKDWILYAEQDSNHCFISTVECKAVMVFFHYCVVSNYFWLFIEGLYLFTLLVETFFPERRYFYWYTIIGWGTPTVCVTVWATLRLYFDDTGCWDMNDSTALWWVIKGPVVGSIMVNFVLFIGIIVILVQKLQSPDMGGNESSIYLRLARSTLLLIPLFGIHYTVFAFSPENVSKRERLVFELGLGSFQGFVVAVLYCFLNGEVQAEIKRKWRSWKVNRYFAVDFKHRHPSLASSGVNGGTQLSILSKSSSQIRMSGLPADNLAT

rat PAC1 receptor = target: T2, rat PAC1 receptor (Rattus norvegicus, UniProt P32215); assay: LANCE Ultra cAMP accumulation antagonist assay in RG-2 cells; assay type: cell-based;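 also: RG-2 rat glioma cells endogenously expressing PAC1, test peptide preincubated 30 min, then PAC1 agonist added at its EC80 for 15 min, cAMP accumulation read by LANCE Ultra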
T2 construct: SHSY-5Y (human neuroblastoma cell line) and RG-2 (rat glioma cell line) cells endogenously express human and rat PAC1 receptors, respectively; endogenous in cells; host or cells: RG-2 rat glioma cells
T2 sequence (P32215 20-523): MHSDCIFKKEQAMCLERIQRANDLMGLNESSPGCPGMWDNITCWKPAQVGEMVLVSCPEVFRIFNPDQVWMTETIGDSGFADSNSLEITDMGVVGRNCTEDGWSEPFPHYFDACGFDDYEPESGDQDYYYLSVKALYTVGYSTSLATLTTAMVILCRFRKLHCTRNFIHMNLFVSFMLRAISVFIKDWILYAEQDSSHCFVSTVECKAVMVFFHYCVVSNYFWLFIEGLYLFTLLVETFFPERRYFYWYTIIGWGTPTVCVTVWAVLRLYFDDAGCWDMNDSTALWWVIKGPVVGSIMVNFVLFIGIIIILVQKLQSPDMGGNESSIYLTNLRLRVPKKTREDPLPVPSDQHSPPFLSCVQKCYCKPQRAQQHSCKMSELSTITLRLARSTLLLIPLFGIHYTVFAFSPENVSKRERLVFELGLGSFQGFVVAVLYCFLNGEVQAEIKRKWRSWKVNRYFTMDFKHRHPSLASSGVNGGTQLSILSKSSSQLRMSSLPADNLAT

SMILES	IC50 (human PAC1 receptor) [nM]	IC50 (rat PAC1 receptor) [nM]
CC[C@H](C)[C@H](NC(=O)[C@H](C)NC(=O)[C@H](CCCCN)NC(=O)[C@H](CCCNC(=N)N)NC(=O)[C@H](Cc1ccccc1)NC(=O)[C@H](CCC(N)=O)NC(=O)[C@@H]1CSSC[C@H](N)C(=O)N[C@@H](CC(=O)O)C(=O)N[C@@H](C)C(=O)N[C@@H]([C@@H](C)O)C(=O)N1)C(=O)N[C@@H](CC(=O)O)C(=O)N[C@@H](CC(=O)O)C(=O)N[C@H]1CSSC[C@@H](C(=O)N[C@@H](CCSC)C(=O)N[C@@H](CCCCN)C(=O)N[C@@H](CCC(N)=O)C(=O)N[C@@H](CCCCN)C(=O)N[C@@H](CCCCN)C(=O)N[C@@H](CCCCN)C(=O)N[C@@H](CCC(=O)O)C(=O)N[C@@H](Cc2ccccc2)C(=O)N[C@@H](CCCCN)C(=O)N[C@@H](C)C(=O)NCC(N)=O)NC(=O)[C@H](C)NC(=O)[C@H](CCCCN)NC(=O)[C@H](Cc2ccccc2)NC(=O)[C@H](CO)NC(=O)[C@H](CO)NC(=O)[C@H](Cc2c[nH]cn2)NC(=O)[C@H](Cc2c[nH]c3ccccc23)NC(=O)[C@H](CO)NC(=O)[C@H](CCCNC(=N)N)NC(=O)[C@H](Cc2ccc(O)cc2)NC(=O)[C@H](Cc2ccc(O)cc2)NC1=O [compound 63] (H-CDATCQFRKAIDDCYYRSWHSSFKACMKQKKKEFKAG-NH2; disulfide 1-5, 14-26)	0.01 to 1	0.01 to 1
CC[C@H](C)[C@H](NC(=O)[C@H](C)NC(=O)[C@H](CCCCN)NC(=O)[C@H](CCCNC(=N)N)NC(=O)[C@H](Cc1ccccc1)NC(=O)[C@H](CCC(N)=O)NC(=O)[C@@H]1CSSC[C@H](N)C(=O)N[C@@H](CC(=O)O)C(=O)N[C@@H](C)C(=O)N[C@@H]([C@@H](C)O)C(=O)N1)C(=O)N[C@@H](CC(=O)O)C(=O)N[C@@H](CC(=O)O)C(=O)N[C@H]1CSSC[C@@H](C(=O)N[C@@H](CCSC)C(=O)N[C@@H](CCCCN)C(=O)N[C@@H](CCC(N)=O)C(=O)N[C@@H](CCCCN)C(=O)N[C@@H](CCCCN)C(=O)N[C@@H](CCCCN)C(=O)N[C@@H](CCC(=O)O)C(=O)N[C@@H](Cc2c[nH]c3ccccc23)C(=O)N[C@@H](CCCCN)C(=O)N[C@@H](C)C(=O)NCC(=O)N[C@@H](Cc2c[nH]cn2)C(=O)O)NC(=O)[C@H](C)NC(=O)[C@H](CCCCN)NC(=O)[C@H](Cc2ccccc2)NC(=O)[C@H](C(C)C)NC(=O)[C@H](CO)NC(=O)[C@H](CO)NC(=O)[C@H](Cc2c[nH]cn2)NC(=O)[C@H](Cc2c[nH]c3ccccc23)NC(=O)[C@H](CO)NC(=O)[C@H](CCCNC(=N)N)NC(=O)[C@H](Cc2ccc(O)cc2)NC(=O)[C@H](Cc2ccc(O)cc2)NC1=O [compound 72] (H-CDATCQFRKAIDDCYYRSWHSSVFKACMKQKKKEWKAGH-OH; disulfide 1-5, 14-27)	0.01 to 1	0.01 to 1
CC[C@H](C)[C@H](NC(=O)[C@H](C)NC(=O)[C@H](CCCCN)NC(=O)[C@H](CCCNC(=N)N)NC(=O)[C@H](Cc1ccccc1)NC(=O)[C@H](CCC(N)=O)NC(=O)[C@@H]1CSSC[C@H](N)C(=O)N[C@@H](CC(=O)O)C(=O)N[C@@H](C)C(=O)N[C@@H]([C@@H](C)O)C(=O)N1)C(=O)N[C@@H](CC(=O)O)C(=O)N[C@@H](CC(=O)O)C(=O)N[C@H]1CSSC[C@@H](C(=O)N[C@@H](CCSC)C(=O)N[C@@H](CCCCN)C(=O)N[C@@H](CCC(N)=O)C(=O)N[C@@H](CCCCN)C(=O)N[C@@H](CCCCN)C(=O)N[C@@H](CCCCN)C(=O)N[C@@H](CCC(=O)O)C(=O)N[C@@H](Cc2c[nH]c3ccccc23)C(=O)N[C@@H](CCCCN)C(=O)N[C@@H](C)C(=O)NCC(=O)N[C@@H](Cc2c[nH]cn2)C(=O)O)NC(=O)[C@H](C)NC(=O)[C@H](CCCCN)NC(=O)[C@H](Cc2ccccc2)NC(=O)[C@H](C(C)C)NC(=O)[C@H](CO)NC(=O)[C@H](CO)NC(=O)[C@H](Cc2c[nH]cn2)NC(=O)[C@H](Cc2c[nH]cn2)NC(=O)[C@H](C)NC(=O)[C@H](CCC(N)=O)NC(=O)[C@H](CCCNC(=N)N)NC(=O)[C@H](C(C)C)NC1=O [compound 75] (H-CDATCQFRKAIDDCVRQAHHSSVFKACMKQKKKEWKAGH-OH; disulfide 1-5, 14-27)	0.01 to 1	< 0.01
CC[C@H](C)[C@H](NC(=O)[C@H](C)NC(=O)[C@H](CCCCN)NC(=O)[C@H](CCCNC(=N)N)NC(=O)[C@H](Cc1ccccc1)NC(=O)[C@H](CCC(N)=O)NC(=O)[C@@H]1CSSC[C@H](N)C(=O)N[C@@H](CC(=O)O)C(=O)N[C@@H](C)C(=O)N[C@@H]([C@@H](C)O)C(=O)N1)C(=O)N[C@@H](CC(=O)O)C(=O)N[C@@H](CC(=O)O)C(=O)N[C@H]1CSSC[C@@H](C(=O)N[C@@H](CCSC)C(=O)N[C@@H](CCCCN)C(=O)N[C@@H](CCC(N)=O)C(=O)N[C@@H](CCCCN)C(=O)N[C@@H](CCCCN)C(=O)N[C@@H](CCCCN)C(=O)N[C@@H](CCC(=O)O)C(=O)N[C@@H](Cc2ccccc2)C(=O)N[C@@H](CCCCN)C(N)=O)NC(=O)[C@H](CCC(=O)O)NC(=O)[C@H](CCCCN)NC(=O)[C@H](Cc2ccccc2)NC(=O)[C@H](CO)NC(=O)[C@H](CC(N)=O)NC(=O)[C@H](CO)NC(=O)[C@H](Cc2c[nH]cn2)NC(=O)[C@H](Cc2c[nH]cn2)NC(=O)[C@H](C)NC(=O)[C@H](CCC(N)=O)NC(=O)[C@H](CCCCN)NC(=O)[C@H](CC(=O)O)NC1=O [compound 222]	< 0.01	1 to 100
CC[C@H](C)[C@H](NC(=O)[C@H](C)NC(=O)[C@H](CCCCN)NC(=O)[C@H](CCCNC(=N)N)NC(=O)[C@H](Cc1ccccc1)NC(=O)[C@H](CCC(N)=O)NC(=O)[C@@H]1CSSC[C@H](N)C(=O)N[C@@H](CC(=O)O)C(=O)N[C@@H](C)C(=O)N[C@@H]([C@@H](C)O)C(=O)N1)C(=O)N[C@@H](CC(=O)O)C(=O)N[C@@H](CC(=O)O)C(=O)N[C@H]1CSSC[C@@H](C(=O)N[C@@H](CCSC)C(=O)N[C@@H](CCCCN)C(=O)N[C@@H](CCC(N)=O)C(=O)N[C@@H](CCCCN)C(=O)N[C@@H](CCCCN)C(=O)N[C@@H](CCCCN)C(=O)N[C@@H](CCC(=O)O)C(=O)N[C@@H](Cc2ccccc2)C(=O)N[C@@H](CCCCN)C(N)=O)NC(=O)[C@H](CCC(=O)O)NC(=O)[C@H](CCCCN)NC(=O)[C@H](Cc2ccccc2)NC(=O)[C@H](C(C)C)NC(=O)[C@H](CO)NC(=O)[C@H](CO)NC(=O)[C@H](Cc2c[nH]cn2)NC(=O)[C@H](Cc2c[nH]cn2)NC(=O)[C@H](C)NC(=O)[C@H](CCC(N)=O)NC(=O)[C@H](CCCCN)NC(=O)[C@H](CC(=O)O)NC1=O [compound 223]	< 0.01	1 to 100
CC[C@H](C)[C@H](NC(=O)[C@H](C)NC(=O)[C@H](CCCCN)NC(=O)[C@H](CCCNC(=N)N)NC(=O)[C@H](Cc1ccccc1)NC(=O)[C@H](CCC(N)=O)NC(=O)[C@@H]1CSSC[C@H](N)C(=O)N[C@@H](CC(=O)O)C(=O)N[C@@H](C)C(=O)N[C@@H]([C@@H](C)O)C(=O)N1)C(=O)N[C@@H](CC(=O)O)C(=O)N[C@@H](CC(=O)O)C(=O)N[C@H]1CSSC[C@@H](C(=O)N[C@@H](CCSC)C(=O)N[C@@H](CCCCN)C(=O)N[C@@H](CCC(N)=O)C(=O)N[C@@H](CCCCN)C(=O)N[C@@H](CCCCN)C(=O)N[C@@H](CCCCN)C(=O)N[C@@H](CCC(=O)O)C(=O)N[C@@H](Cc2ccccc2)C(=O)N[C@@H](CCCCN)C(N)=O)NC(=O)[C@H](CCC(=O)O)NC(=O)[C@H](CCCCN)NC(=O)[C@H](Cc2ccccc2)NC(=O)[C@H](CO)NC(=O)[C@H](CC(N)=O)NC(=O)[C@H](CO)NC(=O)[C@H](Cc2c[nH]cn2)NC(=O)[C@H](Cc2c[nH]cn2)NC(=O)[C@H](C)NC(=O)[C@H](CCC(N)=O)NC(=O)[C@H](CCCCN)NC(=O)[C@H](CCC(N)=O)NC1=O [compound 224] (H-CDATCQFRKAIDDCQKQAHHSNSFKECMKQKKKEFK-NH2; disulfide 1-5, 14-27)	0.01 to 1	1 to 100
CC[C@H](C)[C@H](NC(=O)[C@H](C)NC(=O)[C@H](CCCCN)NC(=O)[C@H](CCCNC(=N)N)NC(=O)[C@H](Cc1ccccc1)NC(=O)[C@H](CCC(N)=O)NC(=O)[C@@H]1CSSC[C@H](N)C(=O)N[C@@H](CC(=O)O)C(=O)N[C@@H](C)C(=O)N[C@@H]([C@@H](C)O)C(=O)N1)C(=O)N[C@@H](CC(=O)O)C(=O)N[C@@H](CC(=O)O)C(=O)N[C@H]1CSSC[C@@H](C(=O)N[C@@H](CCSC)C(=O)N[C@@H](CCCCN)C(=O)N[C@@H](CCC(N)=O)C(=O)N[C@@H](CCCCN)C(=O)N[C@@H](CCCCN)C(=O)N[C@@H](CCCCN)C(=O)N[C@@H](CCC(=O)O)C(=O)N[C@@H](Cc2ccccc2)C(=O)N[C@@H](CCCCN)C(N)=O)NC(=O)[C@H](CCC(=O)O)NC(=O)[C@H](CCCCN)NC(=O)[C@H](Cc2ccccc2)NC(=O)[C@H](C(C)C)NC(=O)[C@H](CO)NC(=O)[C@H](CO)NC(=O)[C@H](Cc2c[nH]cn2)NC(=O)[C@H](Cc2c[nH]cn2)NC(=O)[C@H](C)NC(=O)[C@H](CCC(N)=O)NC(=O)[C@H](CCCCN)NC(=O)[C@H](CCC(N)=O)NC1=O [compound 225] (H-CDATCQFRKAIDDCQKQAHHSSVFKECMKQKKKEFK-NH2; disulfide 1-5, 14-27)	0.01 to 1	1 to 100
